{"source": "paper PMC4546402", "about": "“Structural Model of the Bilitranslocase Transmembrane Domain Supported by NMR and FRET Data” (PLoS ONE, 2015)", "key": {"[1]": {"molecular_target": "TM2:TM2", "test": "FRET titration of Atto488/Atto594-labelled peptides in SDS micelles, TM2:TM2 pair", "assay_type": "binding", "details": "Atto488 donor/Atto594 acceptor, SDS micelle, TM2 with TM2, ratio of donor emission at 523 nm to acceptor emission at 627 nm, read-out: dissociation constant Kd"}, "[2]": {"tested_on": "bilitranslocase (BTL)", "details": "ref [10]; cited from earlier work"}, "[3]": {"molecular_target": "TM3:TM3", "test": "FRET titration of Atto488/Atto594-labelled peptides in SDS micelles, TM3:TM3 pair", "assay_type": "binding", "details": "Atto488 donor/Atto594 acceptor, SDS micelle, TM3 with TM3, ratio of donor emission at 523 nm to acceptor emission at 627 nm, read-out: dissociation constant Kd"}}, "note": "Residues, ends and D or L forms follow the SMILES beside them. No end group written: not given here."}
{"compound": "CC[C@H](C)[C@H](NC(=O)[C@H](C)NC(=O)[C@H](CCCCN)NC(=O)[C@H](CS)NC(=O)[C@H](CC(C)C)NC(=O)CNC(=O)[C@H](CO)NC(=O)[C@@H](NC(=O)CNC(=O)[C@H](C)NC(=O)[C@H](CO)NC(=O)[C@H](Cc1ccccc1)NC(=O)[C@@H]1CCCN1C(=O)[C@H](CO)NC(=O)[C@H](CCC(N)=O)NC(=O)[C@H](CC(C)C)NC(=O)[C@@H](NC(=O)[C@H](C)NC(=O)[C@@H](NC(=O)[C@H](Cc1ccccc1)NC(=O)[C@H](CC(C)C)NC(=O)[C@H](CS)NC(=O)[C@H](Cc1ccccc1)NC(=O)[C@H](CO)NC(=O)[C@@H](N)CO)C(C)C)[C@@H](C)O)C(C)C)C(=O)N[C@@H](CC(C)C)C(=O)N[C@@H](CC(C)C)C(=O)N[C@@H](CCCCN)C(=O)N[C@@H](CCCCN)C(=O)N[C@@H](CCCCN)C(=O)N[C@@H](CCCCN)C(=O)O", "note": "[TM2:TM2] (H-SSFCLFVATLQSPFSAGVSGLCKAILLKKKK-OH)", "values": [{"measurement": "Kd", "setting": "[1]", "value": 71.9, "unit": "µM"}]}
{"compound": "C=CC1=C(C)/C(=C/c2[nH]c(Cc3[nH]c(/C=C4\\NC(=O)C(C)=C4C=C)c(C)c3CCC(=O)O)c(CCC(=O)O)c2C)NC1=O", "note": "[bilirubin]", "values": [{"measurement": "allosteric effect on BTL", "setting": "[2]", "value": "positive allosteric effectors, inducing the BTL into its high-affinity state"}, {"measurement": "effect on conversion between the two metastable BTL conformers", "setting": "[2]", "value": "accelerated"}]}
{"compound": "O=C(O)c1cccnc1", "note": "[nicotinic acid]", "values": [{"measurement": "allosteric effect on BTL", "setting": "[2]", "value": "positive allosteric effectors, inducing the BTL into its high-affinity state"}]}
{"compound": "GSVQCAGLISLPIAIEFTYKKKK [TM3:TM3]", "values": [{"measurement": "Kd", "setting": "[3]", "value": 191, "unit": "µM"}]}
